Reference: BindingDB's records for doi:10.1021/jm800669s (Abbott Laboratories, 2008)

Target: Bcl-2-like protein 1 (Bcl-XL) (Homo sapiens) (UniProt Q07817)
Test: Displacement of fluorescein labeled BAD peptide from Bcl-XL by fluorescence polarization assay

Bcl-2-like protein 1 (Bcl-XL) (Homo sapiens), sequence (Q07817 whole entry, looked up): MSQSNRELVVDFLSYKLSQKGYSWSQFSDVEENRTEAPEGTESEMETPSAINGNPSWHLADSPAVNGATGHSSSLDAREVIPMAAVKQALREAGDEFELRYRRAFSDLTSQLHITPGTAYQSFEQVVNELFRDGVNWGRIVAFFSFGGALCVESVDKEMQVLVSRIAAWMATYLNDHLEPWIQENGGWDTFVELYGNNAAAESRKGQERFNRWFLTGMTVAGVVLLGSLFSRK

SMILES	Ki
CN(C)CC[C@H](CSc1ccccc1)Nc1ccc(S(=O)(=O)NC(=O)c2ccc(N3CCN(Cc4ccccc4-c4ccc(Cl)cc4)CC3)cc2)cc1 [(R)-4-(4-((4'-Chlorobiphenyl-2-yl)methyl)piperazin-1-yl)-N-(4-(4-(dimethylamino)-1-(phenylthio)butan-2-ylamino)phenylsulfonyl)benzamide]	14 nM
CN(C)CC[C@H](CSc1ccccc1)Nc1ccc(S(=O)(=O)NC(=O)c2ccc(N3CCN(CC4=C(c5ccc(Cl)cc5)CCC(C)(C)C4)CC3)cc2)cc1[N+](=O)[O-] [(R)-4-(4-((2-(4-Chlorophenyl)-5,5-dimethylcyclohex-1-enyl)methyl)piperazin-1-yl)-N-(4-(4-(dimethylamino)-1-(phenylthio)butan-2-ylamino)-3-nitrophenylsulfonyl)benzamide]	1.4 nM
